In ChEMBL document CHEMBL4673385, “Discovery of Potent Inhibitors of Streptococcus mutans Biofilm with Antivirulence Activity” (ACS Med Chem Lett, 2021):
Converted amounts (≈) assume the structure as drawn. The source made the active and inactive calls. Unless noted, no cut-off for these calls is given here.

Tests used:
[1] = target: T1, Glucosyltransferase-S (Streptococcus mutans serotype c (strain ATCC 700610 / UA159)) (UniProt P49331); assay: Inhibition of GtfD in Streptococcus mutans UA159 assessed as reduction in glucans level by Coomassie blue dye based SDS-PAGE analysis
T1 sequence (whole entry): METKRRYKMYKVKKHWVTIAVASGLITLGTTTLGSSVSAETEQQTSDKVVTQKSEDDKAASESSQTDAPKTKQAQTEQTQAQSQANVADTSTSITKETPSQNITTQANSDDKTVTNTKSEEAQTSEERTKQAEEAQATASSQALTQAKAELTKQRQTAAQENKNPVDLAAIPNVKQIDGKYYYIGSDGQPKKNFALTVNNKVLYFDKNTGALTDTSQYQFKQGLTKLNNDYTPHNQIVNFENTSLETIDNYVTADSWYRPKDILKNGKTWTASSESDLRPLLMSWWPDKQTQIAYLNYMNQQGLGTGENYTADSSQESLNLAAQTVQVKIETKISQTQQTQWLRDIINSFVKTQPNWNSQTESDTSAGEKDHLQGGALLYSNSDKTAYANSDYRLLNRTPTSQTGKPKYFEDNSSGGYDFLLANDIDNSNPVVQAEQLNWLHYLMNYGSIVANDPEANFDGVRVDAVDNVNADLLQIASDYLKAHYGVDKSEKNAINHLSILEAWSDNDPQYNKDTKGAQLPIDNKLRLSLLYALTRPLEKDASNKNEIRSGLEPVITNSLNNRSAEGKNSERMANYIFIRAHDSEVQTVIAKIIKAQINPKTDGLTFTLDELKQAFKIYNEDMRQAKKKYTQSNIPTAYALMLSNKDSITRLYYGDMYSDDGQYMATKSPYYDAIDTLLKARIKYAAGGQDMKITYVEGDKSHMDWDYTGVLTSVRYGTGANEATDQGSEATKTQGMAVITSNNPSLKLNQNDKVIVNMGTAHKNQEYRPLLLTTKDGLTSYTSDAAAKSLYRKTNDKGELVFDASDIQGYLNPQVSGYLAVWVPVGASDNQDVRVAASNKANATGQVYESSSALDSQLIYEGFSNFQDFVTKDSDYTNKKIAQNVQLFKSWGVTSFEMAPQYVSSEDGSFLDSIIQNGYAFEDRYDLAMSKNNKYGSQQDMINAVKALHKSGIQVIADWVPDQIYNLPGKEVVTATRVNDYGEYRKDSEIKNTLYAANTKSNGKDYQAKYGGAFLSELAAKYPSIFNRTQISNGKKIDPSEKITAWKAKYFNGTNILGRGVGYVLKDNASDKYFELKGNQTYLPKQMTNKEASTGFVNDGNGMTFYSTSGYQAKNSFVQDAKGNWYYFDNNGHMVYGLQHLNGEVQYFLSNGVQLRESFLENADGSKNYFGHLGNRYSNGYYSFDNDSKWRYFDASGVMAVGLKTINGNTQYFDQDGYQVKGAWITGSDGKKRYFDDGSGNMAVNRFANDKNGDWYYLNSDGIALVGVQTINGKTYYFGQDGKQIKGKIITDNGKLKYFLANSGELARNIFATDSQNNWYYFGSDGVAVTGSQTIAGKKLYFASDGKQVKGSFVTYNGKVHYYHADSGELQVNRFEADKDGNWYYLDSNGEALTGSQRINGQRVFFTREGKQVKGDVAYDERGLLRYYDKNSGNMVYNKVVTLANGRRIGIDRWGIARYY

Streptococcus mutans = assay: Bactericidal activity against Streptococcus mutans UA159 assessed as reduction in bacterial growth at 100 uM after 24 hrs; type: functional, organism-based
[2] = Solubility of compound in water; type: physicochemical; conditions: water; read-out: solubility
[3] = target: T2, Glucosyltransferase-I (Streptococcus mutans serotype c (strain ATCC 700610 / UA159)) (UniProt P08987); assay: Inhibition of GtfB in Streptococcus mutans UA159 assessed as reduction in glucans level by Coomassie blue dye based SDS-PAGE analysis
T2 sequence (whole entry): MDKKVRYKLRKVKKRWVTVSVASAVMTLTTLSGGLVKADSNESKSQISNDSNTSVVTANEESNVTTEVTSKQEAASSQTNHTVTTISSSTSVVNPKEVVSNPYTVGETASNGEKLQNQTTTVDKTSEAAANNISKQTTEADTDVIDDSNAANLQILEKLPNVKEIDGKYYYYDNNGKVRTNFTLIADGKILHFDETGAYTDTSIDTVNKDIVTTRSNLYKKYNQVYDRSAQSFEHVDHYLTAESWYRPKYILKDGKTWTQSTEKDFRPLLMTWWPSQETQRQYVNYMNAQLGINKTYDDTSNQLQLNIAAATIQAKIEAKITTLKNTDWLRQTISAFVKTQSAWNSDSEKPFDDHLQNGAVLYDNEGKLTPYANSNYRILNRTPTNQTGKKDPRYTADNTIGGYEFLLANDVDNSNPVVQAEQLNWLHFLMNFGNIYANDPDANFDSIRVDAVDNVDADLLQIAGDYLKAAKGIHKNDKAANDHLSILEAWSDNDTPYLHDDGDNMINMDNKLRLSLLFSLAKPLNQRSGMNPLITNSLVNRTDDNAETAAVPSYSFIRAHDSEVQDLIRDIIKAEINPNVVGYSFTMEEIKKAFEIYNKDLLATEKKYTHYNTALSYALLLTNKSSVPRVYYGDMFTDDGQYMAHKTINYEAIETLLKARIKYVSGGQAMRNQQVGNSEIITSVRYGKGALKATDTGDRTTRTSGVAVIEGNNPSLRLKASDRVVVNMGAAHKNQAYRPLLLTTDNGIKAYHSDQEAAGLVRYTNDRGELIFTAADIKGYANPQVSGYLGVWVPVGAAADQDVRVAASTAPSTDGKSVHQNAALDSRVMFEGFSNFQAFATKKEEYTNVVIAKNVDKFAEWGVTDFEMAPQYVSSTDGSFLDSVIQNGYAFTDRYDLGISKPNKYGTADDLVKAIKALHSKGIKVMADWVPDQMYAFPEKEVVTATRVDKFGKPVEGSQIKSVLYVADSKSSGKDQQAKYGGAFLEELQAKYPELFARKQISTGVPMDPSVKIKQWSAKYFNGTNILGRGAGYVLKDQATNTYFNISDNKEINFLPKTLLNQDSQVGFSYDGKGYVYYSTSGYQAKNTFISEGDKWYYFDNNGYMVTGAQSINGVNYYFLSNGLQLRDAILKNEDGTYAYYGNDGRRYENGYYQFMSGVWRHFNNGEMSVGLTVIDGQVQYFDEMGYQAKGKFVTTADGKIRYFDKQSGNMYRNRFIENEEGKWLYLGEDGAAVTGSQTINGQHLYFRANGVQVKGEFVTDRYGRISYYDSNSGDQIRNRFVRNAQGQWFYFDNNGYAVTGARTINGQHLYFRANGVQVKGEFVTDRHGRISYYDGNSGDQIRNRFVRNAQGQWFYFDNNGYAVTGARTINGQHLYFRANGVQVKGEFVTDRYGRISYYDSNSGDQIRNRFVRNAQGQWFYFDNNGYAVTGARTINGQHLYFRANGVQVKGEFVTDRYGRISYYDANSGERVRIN

Row | SMILES | inhibition [1] | solubility [2] [µg/mL] | inhibition [3] | Activity (Streptococcus mutans)
1 | CC(C)(C)OC(=O)NCc1ccccc1NC(=O)c1cnc2ccccc2c1 | Active | 15 (≈ 39.7 µM) | Active | inactive
2 | CC(C)(C)OC(=O)NCc1ccccc1NC(=O)c1cc2cc([N+](=O)[O-])ccc2s1 | Active | < 5 | Active | inactive
3 | NC(=O)c1ccccc1NC(=O)c1cnc2ccccc2c1 | Active | 5 (≈ 17.2 µM) | Active | inactive

Second part, led by results:

Row | inhibition [1] | solubility [2] [µg/mL] | inhibition [3] | SMILES | Activity (Streptococcus mutans)
4 | Active | < 5 | Active | NC(=O)c1cccc(NC(=O)c2cnc3ccccc3c2)c1 | inactive
5 | Active | 10 (≈ 28.1 µM) | Active | COC(=O)c1ccc(NC(=O)c2cc3cc([N+](=O)[O-])ccc3s2)cc1 | inactive
6 | Active | 10 (≈ 29.3 µM) | Active | NC(=O)c1ccccc1NC(=O)c1cc2cc([N+](=O)[O-])ccc2s1 | inactive
7 | Active | – | Active | O=C(c1ccc(F)cc1)c1ccc(-c2[nH]c(-c3ccc([N+](=O)[O-])cc3O)nc2-c2ccccc2)cc1 | –
